Reference: US7671066B2, “Derivatives of 1-phenyl-2-pyridynyl alkylene alcohols as phosphodiesterase inhibitors” (Chiesi Farmaceutici S.p.A., priority 2006, dated 2010)

Columns and labels:
[1] = system: LPS-induced TNF-α release in peripheral blood mononuclear cells (PBMCs); assay: PDE4 inhibitory activity in the PBMCs assay (LPS-induced TNF-α release); format: cell-based; conditions: PBMC; human PBMCs, LPS 3 ng/ml, 18 h, TNF-α by ELISA; mean (95% confidence limits)
Protocol: The assay, which is based on the known inhibitory activity exerted by PDE4 inhibitors on the lipopolyshaccarides (LPS)-induced tumour necrosis factor-alpha (TNF-α) release in peripheral blood mononuclear cells (PBMCs), was performed according to a method previously described (Hatzelmann A et al J. Pharmacol. Exp. Ther. 2001; 297:267-279; Draheim R et al J. Pharmacol. Exp. Ther. 2004; 308:555-563.
Cryopreserved human PBMCs, (100 μl/well) were incubated in 96-well plates (10^5 cells/well), for 30 min, in the presence or absence (50 microl) of the test compounds whose concentrations ranged from 10^−12 M to 10^−6 M. Subsequently, LPS (3 ng/ml) was added.
After 18 h incubation at 37° C. in a humidified incubator under an atmosphere of 95% air and 5% CO2, culture medium was collected and TNF-α measured by ELISA.
The results, expressed as mean ±95% confidence limits of the molar concentration of the test compound producing 50% inhibition of LPS-induced TNF-α release (IC50) are reported in Table 1.
The effects of the tested compounds were calculated as percentage of inhibition of TNF-α release, assuming LPS-induced TNF-α production in the absence of inhibitor compound as 100% and basal TNF-α production of PBMCs in the absence of LPS as 0%.

[2] = system: PDE4 enzyme; assay: PDE4 inhibitory activity in the cell free assay (cAMP disappearance, U937 cell supernatant); format: biochemical, human; conditions: 1.6 μM cAMP, 30 min at 30° C., mean (95% confidence limits)
Protocol: The U937 human monocytic cell line was used as source of PDE4 enzyme. Cells were cultured, harvested and supernatant fraction prepared essentially as described in Torphy T J et al J. Pharmacol. Exp. Ther. 1992; 263:1195-1205.
PDE4 activity was determined in cells supernatants by assaying cAMP disappearance from the incubation mixtures. 50 μl of cell supernatant were incubated at 30° C. for 30 minutes in a final volume of 200 μl in the presence of 1.6 μM cAMP with or without the test compound (50 μl).
The concentration of the test compounds ranged between 10^−12 M and 10^−6 M. Reactions were stopped by heat inactivation (2.5 minutes at 100° C.) and residual cAMP was measured using an electro-chemiluminescence (ECL)-based immunoassay.
The results, expressed as mean ±95% confidence limits of the molar concentration of the test compound producing 50% inhibition of cAMP disappearance (IC50) are reported in Table 1 of Example 38.
Percentage of inhibition of PDE4 activity was calculated, assuming cAMP disappearance in the absence of inhibitors as 100% and cAMP disappearance in heat inactivated samples as 0%.

[3] = system: bronchoalveolar lavage neutrophils; assay: LPS-induced acute pulmonary inflammation in rats (animal model of COPD), intratracheal administration; format: in vivo
Protocol: The anti-inflammatory activity of a representative compound of the invention, e.g. CHF 5480 was evaluated after intratracheal (i.t.) administration according to the method described in Belvisi M G J Pharmacol Exp Ther 2005, 314: 568-574.
CHF 5480 was tested by i.t. instillation 24 h and 1 h before exposure to LPS.

[4] = Pulmonary and plasma levels after intratracheal administration; format: in vivo, rats
[5] = target: HPDE4; assay: Competition for high affinity HPDE4 ([H3]rolipram binding); conditions: 50% inhibition of the binding of [H3]rolipram
Protocol: (§1) In the case of LPDE4, the IC50 is the molar concentration of the test compound producing 50% inhibition of cAMP disappearance, assessed as described in Cortijo J et al Br J Pharmacol 1993, 108: 562-568, while in the case of HPDE4, the IC50 is the molar concentration of the test compound producing 50% inhibition of the binding of [H^3]rolipram, assessed as described in Duplantier A J et al J Med Chem 1996; 39: 120-125.
(§2) The affinity toward LPDE4 and HPDE4 was assessed as previously described respectively in Cortijo J et al Br J Pharmacol 1993, 108: 562-568 and Duplantier A J et al J Med Chem 1996; 39: 120-125.
(§3) The concentration of the test compounds ranged between 10^−12 M and 10^−5 M.
(§4) In the case of LPDE4, the IC50 is the molar concentration of the test compound producing 50% inhibition of cAMP disappearance, while in the case of HPDE4, the IC50 is the molar concentration of the test compound producing 50% inhibition of the binding of [H^3] rolipram.

[6] = system: LPDE4; assay: Inhibition of low affinity LPDE4 (cAMP disappearance); format: biochemical; conditions: for IC50: 50% inhibition of cAMP disappearance; for HPDE4/LPDE4: ratio of IC50 values
Protocol: as §1, §2, §3, §4

| SMILES | IC50 [2] [nM] | IC50 [1] [nM] | also measured |
| --- | --- | --- | --- |
| COc1ccc(/C(=C/c2c(Cl)cncc2Cl)OC(=O)c2ccccc2)cc1OC [CHF 5415, Benzoic acid, (Z)-2-(3,5-dichloro-pyridin-4-yl)-1-(3,4-dimethoxy-phenyl)vinyl ester] | 5.7 | 5.7 | – |
| COc1ccc(C(=O)O/C(=C\c2c(Cl)cncc2Cl)c2ccc(OC)c(OCC3CC3)c2)cc1OCC1CC1 [CHF 5546, 3-Cyclopropylmethoxy-4-methoxy-benzoic acid, (Z)-1-(3-cyclopropylmethoxy-4-methoxy-phenyl)-2-(3,5-dichloro-pyridin-4-yl)vinyl ester] | – | 1 | – |
| COc1ccc(C(=O)O/C(=C\c2c(Cl)cncc2Cl)c2ccc(OC)c(OC3CCCC3)c2)cc1OCc1ccccc1 [CHF 5528, 3-Benzyloxy-4-methoxy-benzoic acid, (Z)-1-(3-cyclopentyloxy-4-methoxy-phenyl)-2-(3,5-dichloro-pyridin-4-yl)vinyl ester] | 7.3 | 21.8 | – |
| COc1ccc(/C(=C/c2c(Cl)cncc2Cl)OC(=O)C2(c3ccc(C)cc3)CC2)cc1OC [CHF 5557, 1-p-Tolyl-cyclopropanecarboxylic acid, (Z)-2-(3,5-dichloro-pyridin-4-yl)-1-(3,4-dimethoxy-phenyl)vinyl ester] | 13.8 | 10.1 | – |
| COc1ccc(/C(=C/c2c(Cl)cncc2Cl)OC(=O)[C@@H](C)c2ccc(CC(C)C)cc2)cc1OC [CHF 5480, 2-(S)-(4-Isobutyl-phenyl)-propionic acid, (Z)-2-(3,5-dichloro-pyridin-4-yl)-1-(3,4-dimethoxy-phenyl)vinyl ester] | 17.9 | 26 | inhibition of bronchoalveolar lavage neutrophils ([3]; i.t. instillation 24 h and 1 h before LPS, doses 0.001 to 10 μmoles/kg): significant and dose-dependent inhibition; reduction of neutrophilia (maximal effect) ([3]; i.t., 1 μmole/kg dose): 60%; levels in plasma ([4]; i.t. administration, plasma): no detectable levels; MRT ([4]; rat, other: intratracheal (i.t.) instillation, lung, read-out: mean residence time in the lungs): 15.3 h |
| COc1ccc(/C(=C/c2c(Cl)cncc2Cl)OC(=O)c2ccc(OC(F)F)c(OCC3CC3)c2)cc1OC [CHF 5555, 3-Cyclopropylmethoxy-4-difluoromethoxy-benzoic acid, (Z)-2-(3,5-dichloro-pyridin-4-yl)-1-(3,4-dimethoxy-phenyl)vinyl ester] | 6.1 | 2 | – |
| COc1ccc(C(=O)Cc2c(Cl)cncc2Cl)cc1OC1CCCC1 [CHF 5400, 1-(3-cyclopentyloxy-4-methoxy-phenyl)-2-(3,5-dichloro-pyridin-4-yl)-ethanone, reference compound] | – | – | IC50 [5]: 0.61 nM; IC50 [6]: 0.94 nM; HPDE4/LPDE4 [6]: 1.5 |
| COc1ccc(C(=O)O/C(=C\c2c(Cl)cncc2Cl)c2ccc(OC)c(OC3CCCC3)c2)cc1OC [CHF 5532, 3,4-Dimethoxy-benzoic acid, (Z)-1-(3-cyclopentyloxy-4-methoxy-phenyl)-2-(3,5-dichloro-pyridin-4-yl)vinyl ester] | 12.6 | 2.2 | – |

Further lines, with some results ahead:

| IC50 [2] [nM] | SMILES | IC50 [1] [nM] | also measured |
| --- | --- | --- | --- |
| 4 | COc1ccc(C(=O)O/C(=C\c2c(Cl)cncc2Cl)c2ccc(OC(F)F)c(OCC3CC3)c2)cc1OC [CHF 5472, 3,4-Dimethoxy-benzoic acid, (Z)-1-(3-cyclopropylmethoxy-4-difluoromethoxy-phenyl)-2-(3,5-dichloro-pyridin-4-yl)vinyl ester] | 5.4 | – |
| 1.3 | COc1ccc(C(=O)O/C(=C\c2c(Cl)cncc2Cl)c2ccc(OC)c(OC3CCCC3)c2)cc1OC1CCCC1 [CHF 5408, 3-Cyclopentyloxy-4-methoxy-benzoic acid, (Z)-1-(3-cyclopentyloxy-4-methoxy-phenyl)-2-(3,5-dichloro-pyridin-4-yl)vinyl ester] | 0.9 | IC50 [5]: 0.74 nM; IC50 [6]: 42.6 nM; HPDE4/LPDE4 [6]: 57.6 |
| 0.37 | COc1ccc(/C(=C/c2c(Cl)cncc2Cl)OC(=O)c2ccc(NS(=O)(=O)c3ccc(F)cc3)cc2)cc1OC [CHF 5533, 4-(4-Fluoro-benzenesulfonylamino)-benzoic acid, (Z)-2-(3,5-dichloro-pyridin-4-yl)-1-(3,4-dimethoxy-phenyl)vinyl ester] | 3.1 | – |
| 1.7 | COc1ccc(/C(=C/c2c(Cl)cncc2Cl)OC(=O)c2ccc(N)cc2)cc1OC [CHF 5530, 4-Amino-benzoic acid, (Z)-2-(3,5-dichloro-pyridin-4-yl)-1-(3,4-dimethoxy-phenyl)vinyl ester] | 5.4 | – |
| 0.7 | COc1ccc(/C(=C/c2c(Cl)cncc2Cl)OC(=O)c2ccc(NS(C)(=O)=O)cc2)cc1OC [CHF 5526, 4-Methanesulfonylamino-benzoic acid (Z)-2-(3,5-dichloro-pyridin-4-yl)-1-(3,4-dimethoxy-phenyl)vinyl ester] | 3.77 | – |
| 1 | COc1ccc(C(=O)O/C(=C\c2c(Cl)cncc2Cl)c2ccc(OC)c(OC)c2)cc1 [CHF 5429, 4-Methoxy-benzoic acid, (Z)-2-(3,5-dichloro-pyridin-4-yl)-1-(3,4-dimethoxy-phenyl)vinyl ester] | 5.6 | – |
| 0.5 | COc1ccc(/C(=C/c2c(Cl)cncc2Cl)OC(=O)c2ccc([N+](=O)[O-])cc2)cc1OC [CHF 5513, 4-Nitro-benzoic acid, (Z)-2-(3,5-dichloro-pyridin-4-yl)-1-(3,4-dimethoxy-phenyl)vinyl ester] | 8.5 | – |
| 1.2 | O=C(O/C(=C\c1c(Cl)cncc1Cl)c1ccc(OC(F)F)c(OCC2CC2)c1)c1ccc(OC(F)F)c(OCC2CC2)c1 [CHF 5514, 3-Cyclopropylmethoxy-4-difluoromethoxy-benzoic acid, (Z)-1-(3-cyclopropylmethoxy-4-difluoromethoxy-phenyl)-2-(3,5-dichloro-pyridin-4-yl)vinyl ester] | 12.5 | – |
| 0.35 | COc1ccc(/C(=C/c2c(Cl)cncc2Cl)OC(=O)c2ccc(NS(=O)(=O)c3ccc(C)cc3)cc2)cc1OC [CHF 5537, 4-(Toluene-4-sulfonylamino)-benzoic acid, (Z)-2-(3,5-dichloro-pyridin-4-yl)-1-(3,4-dimethoxy-phenyl)vinyl ester] | 6.3 | – |
